From patent publication US20240208933A1, “CRYSTALLINE INHIBITORS OF CYSTEINE PROTEASES AND METHODS OF USE THEREOF” (priority 2021, published 2024)
Read-outs that look alike come from different tables or passages of the source.

Key:
[1] = Approximate solubility determined by visual observation; assay type: physicochemical; conditions: organic solvent or mixture
Procedure: Approximate solubility was determined by visual observation and shown in Form C Table 8.
Approximate solubility was determined by visual observation and shown in Form F Table 12.

[2] = Dynamic vapor sorption (DVS) analysis; assay type: physicochemical

| SMILES | solubility ([1]; acetone, solvent Acetone, read-out: Solubility of Form C) [mg/mL] | solubility ([1]; ethanol, solvent Ethanol, read-out: Solubility of Form C) [mg/mL] | solubility ([1]; methanol, solvent Methanol, read-out: Solubility of Form C) [mg/mL] | solubility ([1]; methanol/dichloromethane (1/1), solvent Methanol/Dichloromethane (1/1), read-out: Solubility of Form C) [mg/mL] | solubility ([1]; methanol/dichloromethane (1/2), solvent Methanol/Dichloromethane (1/2), read-out: Solubility of Form C) [mg/mL] | solubility ([1]; methanol/dichloromethane (2/1), solvent Methanol/Dichloromethane (2/1), read-out: Solubility of Form C) [mg/mL] | DVS reversible total mass change ([2]; from about 90% to about 0% RH) | DVS gain ([2]; to about 90% relative humidity (RH) at 25° C.) | solubility ([1]; acetone, solvent Acetone, read-out: Solubility of Form F) [mg/mL] | solubility ([1]; ethanol, solvent Ethanol, read-out: Solubility of Form F) [mg/mL] | solubility ([1]; methanol, solvent Methanol, read-out: Solubility of Form F) [mg/mL] | solubility ([1]; methanol/dichloromethane (1/1), solvent Methanol/Dichloromethane (1/1), read-out: Solubility of Form F) [mg/mL] | solubility ([1]; methanol/dichloromethane (1/2), solvent Methanol/Dichloromethane (1/2), read-out: Solubility of Form F) [mg/mL] | solubility ([1]; methanol/dichloromethane (2/1), solvent Methanol/Dichloromethane (2/1), read-out: Solubility of Form F) [mg/mL] | DVS reversable gain ([2]; from about 0 to about 90% relative humidity (RH), no hysteresis) |
| --- | --- | --- | --- | --- | --- | --- | --- | --- | --- | --- | --- | --- | --- | --- | --- |
| N#C[C@H](C[C@@H]1CCCNC1=O)NC(=O)[C@H](CC1CC1)NC(=O)c1cc2cccc(Cl)c2[nH]1 [Form C, 7-chloro-N—((S)-1-(((S)-1-cyano-2-((S)-2-oxopiperidin-3-yl)ethyl)amino)-3-cyclopropyl-1-oxopropan-2-yl)-1H-indole-2-carboxamide, anhydrate] | < 2 | > 2 | > 9 | > 23 | > 28 | > 16 | about 0.7% | about 0.5% | – | – | – | – | – | – | – |
| N#C[C@H](C[C@@H]1CCCNC1=O)NC(=O)[C@H](CC1CC1)NC(=O)c1cc2cccc(Cl)c2[nH]1 [Form F, 7-chloro-N—((S)-1-(((S)-1-cyano-2-((S)-2-oxopiperidin-3-yl)ethyl)amino)-3-cyclopropyl-1-oxopropan-2-yl)-1H-indole-2-carboxamide, hydrate] | – | – | – | – | – | – | – | – | < 2 | > 7 | > 11 | > 47 | > 58 | > 19 | about 4 wt. % |
